Source: US8097759B2, “Inflammatory cytokine release inhibitor” (Institute of Medicinal Molecular Design, Inc., priority 2000, dated 2012)
Where two headings read alike, the source gives them in different places.

System: NF-κB activation
Assay: NF-κB activation reporter assay (pNFκB-Luc luciferase) under TNF-α stimulation
Assay type: cell-based, human
Details: for inhibition at 1 µg/mL / inhibition at 10 µg/mL: Homo sapiens, read-out: The rate of inhibitory activity against NF-κB activation (%)
Procedure: Using a transfection reagent (Effectene; QIAGEN), the human hepatoma cell strain HepG2 or the human hysterocarcinoma cell strain HeLa was transfected with the firefly luciferase gene (Luc) contained plasmid (pNF κB-Luc Reporter Plasmid; […]) which contained oligonucleotide having five tandem copies of NF-κB binding sequences ([…]) on a upstream region of Luc, according to the QUAGEN's protocol and it was incuvated for 6-24 hours. After addition of TNF-α (40 ng/ml) with or without the test compound, the cells were incuvated for 4 hours, and intracellular luciferase activity was measured with PicaGene LT (TOYO INK MFG Co., Ltd.) and chemical luminescence measurement device ([…]luor Plus; TECAN). The inhibition ratio was measured as a ratio to the value of the luciferase activity without the test compound.

[1] = Concentration of the agent: 1 μg/mL, HepG2 or HeLa cells, TNF-α 40 ng/ml, 4 hours
[2] = Concentration of the agent: 10 μg/mL, HepG2 or HeLa cells, TNF-α 40 ng/ml, 4 hours

Q: Which inhibition at 1 µg/mL [1] does the source give for `COc1cc(NC(=O)c2cc3ccccc3cc2O)cc(OC)c1` [Compound 20, N-(3,5-Dimethoxyphenyl)-3-hydroxy-2-naphthamide] here?
A: -12.1%

Q: And the inhibition at 10 µg/mL [2]?
A: 86.8%

Q: `Cc1ccc(O)c(C(=O)C=Cc2ccc3c(c2)OCCCO3)c1` [Compound 7, 3-(3,4-Dihydro-2H-benzo[b][1,4]dioxepin-7-yl)-1-(2-hydroxy-5-methylphenyl)propen-1-one] was tested. Which inhibition at 1 µg/mL [1] did it give?
A: 30.4%

Q: What about the inhibition at 10 µg/mL [2] of the same compound?
A: 68.7%

Q: Which inhibition at 1 µg/mL [1] does the source give for `CSc1ccc(C(F)(F)F)cc1NC(=O)c1cc(Cl)ccc1O` [Compound 125] here?
A: 94.6%

Q: What about the inhibition at 10 µg/mL [2] of the same compound?
A: 99.1%

Q: For `COc1cc(NC(=O)c2cc(Cl)ccc2OC(C)=O)cc2ccccc12` [Compound 34, 2-Acetoxy-5-Chloro-N-(4-methoxynaphthalen-2-yl)benzamide], which inhibition at 1 µg/mL [1] is on record?
A: 90.5%

Q: And the inhibition at 10 µg/mL [2]?
A: 98.5%

Q: Which inhibition at 1 µg/mL [1] does the source give for `O=C(Nc1cc(Cl)ccc1Cl)c1cc(Cl)ccc1O` [Compound 142] here?
A: 95.1%

Q: And the inhibition at 10 µg/mL [2]?
A: 96.9%

Q: Which results are given for `O=C(Nc1ccc(S(=O)(=O)F)cc1)c1cc(N=Nc2cc(Cl)ccc2Cl)c2ccccc2c1O` [Compound 23, 4-({[4-(2,5-Dichlorophenyl)azo-1-hydroxynaphthalen-2-yl]-carbonyl}amino)benzenesulfonyl fluoride]?
A: inhibition at 1 µg/mL (4 h): 75.7%; inhibition at 10 µg/mL (4 h): 96.6%

Q: `O=C(Nc1cc(C(F)(F)F)cc(C(F)(F)F)c1)c1cc(Cl)ccc1O` [Compound 50] was tested. Which inhibition at 1 µg/mL [1] did it give?
A: 96.3%

Q: What about the inhibition at 10 µg/mL [2] of the same compound?
A: 99.5%

Q: What does the source list for `O=C(Nc1cc(C(F)(F)F)ccc1C(F)(F)F)c1cc(Br)ccc1O` [Compound 101]?
A: inhibition at 1 µg/mL [1]: 95.7%; inhibition at 10 µg/mL [2]: 98.3%

Q: `O=C(Nc1cc(Cl)cc(Cl)c1)c1cc2ccccc2cc1O` [Compound 19, N-(3,5-Dichlorophenyl)-3-hydroxy-2-naphthamide] was tested. Which inhibition at 1 µg/mL [1] did it give?
A: -55.4%

Q: What about the inhibition at 10 µg/mL [2] of the same compound?
A: 95.1%

Q: How did the inhibition at 1 µg/mL [1] turn out when `O=C(Nc1cc(Cl)cc(Cl)c1)c1cc([N+](=O)[O-])ccc1O` [Compound 152] was run?
A: -56.8%

Q: And the inhibition at 10 µg/mL [2]?
A: 70.6%

Q: What does the source list for `O=C(Nc1cc(F)cc(F)c1)c1cc(Br)ccc1O` [Compound 144]?
A: inhibition at 1 µg/mL [1]: 91.8%; inhibition at 10 µg/mL [2]: 96.8%

Q: Which results are given for `O=C(Nc1cc(C(F)(F)F)cc(C(F)(F)F)c1)c1c(O)[nH]c2cc(Cl)ccc12` [Compound 28, N-[3,5-Bis(trifluoromethyl)phenyl]-6-chloro-2-hydroxyindole-3-carboxamide]?
A: inhibition at 1 µg/mL [1]: 16.3%; inhibition at 10 µg/mL [2]: 41.7%

Q: Which inhibition at 1 µg/mL [1] does the source give for `O=C(Nc1cc(C(F)(F)F)cc(C(F)(F)F)c1)c1cc(Cl)cnc1O` [Compound 24, N-[3,5-Bis(trifluoromethyl)phenyl]-5-chloro-2-hydroxypyridine-3-carboxamide] here?
A: 58.1%

Q: And the inhibition at 10 µg/mL [2]?
A: 82.2%

Q: Which inhibition at 1 µg/mL [1] does the source give for `O=C(Nc1cc(Cl)cc(Cl)c1)c1cc(F)ccc1O` [Compound 146] here?
A: 94.2%

Q: What about the inhibition at 10 µg/mL [2] of the same compound?
A: 97%

Q: How did the inhibition at 1 µg/mL [1] turn out when `O=C(Nc1ccccc1C(F)(F)F)c1cc(Cl)ccc1O` [Compound 104] was run?
A: 76.2%

Q: And the inhibition at 10 µg/mL [2]?
A: 96.9%

Q: `O=C(Nc1cccc2ccccc12)c1cc(Cl)ccc1O` [Compound 32, 5-Chloro-2-hydroxy-N-(1-naphthyl)benzamide] was tested. Which inhibition at 1 µg/mL [1] did it give?
A: 89.3%

Q: And the inhibition at 10 µg/mL [2]?
A: 96.3%

Q: With `O=C(Nc1nccs1)c1cc(Br)ccc1O` [Compound 180] as the compound, how does the inhibition at 1 µg/mL [1] read?
A: -23.1%

Q: What about the inhibition at 10 µg/mL [2] of the same compound?
A: 42.8%

Q: How did the inhibition at 1 µg/mL [1] turn out when `O=C(Nc1cc(C(F)(F)F)cc(C(F)(F)F)c1)c1nc2ccccc2nc1O` [Compound 29, N-[3,5-Bis(trifluoromethyl)phenyl]-3-hydroxyquinoxaline-2-carboxamide] was run?
A: 46.3%

Q: What about the inhibition at 10 µg/mL [2] of the same compound?
A: 73%

Q: With “5-Bromo-2-hydroxy-N-(2-phenethyl)benzamide [Compound 2]” as the compound, how does the “The rate of inhibitory activity against NF-κB activation (%)” value [1] read?
A: 18.6%

Q: And the “The rate of inhibitory activity against NF-κB activation (%)” value [2]?
A: 83.2%

Q: `O=C(Nc1nc(-c2ccccc2)c(-c2ccccc2)o1)c1cc(Br)ccc1O` [Compound 38, 5-Bromo-N-(4,5-diphenyloxazol-2-yl)-2-hydroxybenzamide] was tested. Which inhibition at 1 µg/mL [1] did it give?
A: -10.1%

Q: What about the inhibition at 10 µg/mL [2] of the same compound?
A: 81.8%
